Source: patent US11001577B2, “Pesticidally active azetidine sulfones amide isoxazoline derivatives” (SYNGENTA PARTICIPATIONS AG, priority 2016, dated 2021)
Like-named read-outs stand apart in the source and are kept apart here.

Assays:
Format in all cases: in vivo
Spodoptera littoralis [1] = assay: Comparative Example C2: Spodoptera littoralis feeding/contact activity; details: 3 days after infestation
Procedure: (§1) Compounds of the invention were tested alongside a number of compounds from WO 2013/026931.
Spodoptera littoralis (Egyptian Cotton Leaf Worm):Feeding/Contact Activity
(§2) Cotton leaf discs were placed onto agar in 24-well microtiter plates and sprayed with aqueous test solutions prepared from 10,000 ppm DMSO stock solutions. After drying the leaf discs were infested with five L1 larvae. The samples were assessed for mortality (%) 3 days after infestation at the various application rates.

Thrips tabaci [2] = assay: Comparative Example C4: Thrips tabaci feeding/contact activity; details: 6 days after infestation
Procedure: as §1
(§3) Thrips tabaci (Onion Thrips) Feeding/Contact Activity
as §2, with “Sunflower” for “Cotton”, “on” for “onto”, “a thrips population of mixed ages.” for “five L1 larvae.”, “6” for “3”

Plutella xylostella [3] = assay: Comparative Example C1: Plutella xylostella feeding/contact activity
Procedure: as §1
Plutella xylostella (Diamond Back Moth):Feeding/Contact Activity
(§4) 24-well microtiter plates with artificial diet were treated with aqueous test solutions prepared from 10,000 ppm DMSO stock solutions by pipetting. After drying, the plates were infested with L2 larvae (10 to 15 per well). The samples were assessed for mortality (%) 5 days after infestation at the various application rates

Tetranychus urticae [4] = assay: Comparative Example C3: Tetranychus urticae feeding/contact activity; details: mobile stages, 8 days after infestation
Procedure: as §1
(§5) Tetranychus urticae (Two-Spotted Spider Mite):Feeding/Contact Activity
(§6) Bean leaf discs on agar in 24-well microtiter plates were sprayed with aqueous test solutions prepared from 10,000 ppm DMSO stock solutions. After drying the leaf discs were infested with a mite population of mixed ages. The samples were assessed for mortality on mixed population (%) (mobile stages) 8 days after infestation at the various application rates.

Plutella xylostella [5] = assay: Plutella xylostella (diamond back moth), artificial diet; details: 120 h, read-out: effect in at least one of the two categories (mortality or growth inhibition); for percent effect (mortality or growth inhibition) at 200 ppm: application rate 200 ppm, L2 larvae, 5 days after infestation
Procedure: Plutella xylostella (Diamond Back Moth)
as §4, with “and growth inhibition in comparison to untreated samples” for “(%)”, “infestation.” for “infestation at the various application rates”

Myzus persicae = Myzus persicae (green peach aphid) feeding/contact activity; details: 144 h
Procedure: Myzus persicae (Green Peach Aphid):Feeding/Contact Activity
(§7) Sunflower leaf discs were placed onto agar in a 24-well microtiter plate and sprayed with aqueous test solutions prepared from 10,000 ppm DMSO stock solutions. After drying, the leaf discs were infested with an aphid population of mixed ages. The samples were assessed for mortality 6 days after infestation.

Tetranychus urticae [6] = assay: Tetranychus urticae (two-spotted spider mite) feeding/contact activity; details: 192 h, read-out: mortality on mixed population (mobile stages)
Procedure: as §5
as §6, with “population” for “population (%)”, “infestation.” for “infestation at the various application rates.”

Spodoptera littoralis [7] = assay: Spodoptera littoralis (Egyptian cotton leaf worm), cotton leaf discs; details: foliar, 72 h; for percent control (mortality, anti-feedant effect or growth inhibition) at 200 ppm: application rate 200 ppm, L1 larvae, 3 days after infestation
Procedure: Spodoptera littoralis (Egyptian Cotton Leaf Worm)
Cotton leaf discs were placed onto agar in 24-well microtiter plates and sprayed with aqueous test solutions prepared from 10,000 ppm DMSO stock solutions. After drying the leaf discs were infested with five L1 larvae. The samples were assessed for mortality, anti-feeding effect, and growth inhibition in comparison to untreated samples 3 days after infestation. Control of Spodoptera littoralis by a test sample is given when at least one of the categories mortality, anti-feedant effect, and growth inhibition is higher than the untreated sample.

Diabrotica balteata = Diabrotica balteata (corn root worm), maize sprouts sprayed; details: 96 h, read-out: effect in at least one of the two categories (mortality or growth inhibition); for percent effect (mortality or growth inhibition) at 200 ppm: application rate 200 ppm, L2 larvae, 4 days after infestation
Procedure: Diabrotica balteata (Corn Root Worm)
Maize sprouts placed onto an agar layer in 24-well microtiter plates were treated with aqueous test solutions prepared from 10,000 ppm DMSO stock solutions by spraying. After drying, the plates were infested with L2 larvae (6 to 10 per well). The samples were assessed for mortality and growth inhibition in comparison to untreated samples 4 days after infestation.

Thrips tabaci [8] = assay: Thrips tabaci (onion thrips) feeding/contact activity; details: 144 h
Procedure: as §3
as §7, with “on” for “onto”, “in” for “in a”, “plates” for “plate”, “drying” for “drying,”, “a thrips” for “an aphid”

Euschistus heros = Euschistus heros (neotropical brown stink bug), soybean leaves sprayed; details: 120 h, read-out: effect in at least one of the two categories (mortality or growth inhibition); for percent effect (mortality or growth inhibition) at 200 ppm: application rate 200 ppm, N2 nymphs, 5 days after infestation
Procedure: Euschistus heros (Neotropical Brown Stink Bug)
Soybean leaves on agar in 24-well microtiter plates were sprayed with aqueous test solutions prepared from 10,000 ppm DMSO stock solutions. After drying the leaves were infested with N2 nymphs. The samples were assessed for mortality and growth inhibition in comparison to untreated samples 5 days after infestation.

[9] = application rate 200 ppm, mixed ages, 6 days after infestation, read-out: mortality
[10] = application rate 200 ppm, 8 days after infestation

Cc1cc(C2=NOC(c3cc(Cl)cc(Cl)c3)(C(F)(F)F)C2)ccc1C(=O)NC1CN(S(=O)(=O)F)C1 (stereo not drawn) [Compound A06]
Spodoptera littoralis larval average mortality (%) (Spodoptera littoralis [1]; application rate 0.195 ppm): 100% | Spodoptera littoralis larval average mortality (%) (Spodoptera littoralis [1]; application rate 0.781 ppm): 100% | Spodoptera littoralis larval average mortality (%) (Spodoptera littoralis [1]; application rate 3.12 ppm): 100% | Spodoptera littoralis larval average mortality (%) (Spodoptera littoralis [1]; application rate 12.5 ppm): 100% | Spodoptera littoralis larval average mortality (%) (Spodoptera littoralis [1]; application rate 50 ppm): 100% | Spodoptera littoralis larval average mortality (%) (Spodoptera littoralis [1]; application rate 200 ppm): 100% | Thrips tabaci mixed population average mortality (%) (Thrips tabaci [2]; application rate 0.195 ppm): 0% | Thrips tabaci mixed population average mortality (%) (Thrips tabaci [2]; application rate 0.781 ppm): 100% | Thrips tabaci mixed population average mortality (%) (Thrips tabaci [2]; application rate 3.12 ppm): 100% | Thrips tabaci mixed population average mortality (%) (Thrips tabaci [2]; application rate 12.5 ppm): 100% | Thrips tabaci mixed population average mortality (%) (Thrips tabaci [2]; application rate 50 ppm): 100% | Thrips tabaci mixed population average mortality (%) (Thrips tabaci [2]; application rate 200 ppm): 100% | Plutella xylostella larval average mortality (%) (Plutella xylostella [3]; application rate 0.195 ppm): 80% | Plutella xylostella larval average mortality (%) (Plutella xylostella [3]; application rate 0.781 ppm): 100% | Plutella xylostella larval average mortality (%) (Plutella xylostella [3]; application rate 3.12 ppm): 100% | Plutella xylostella larval average mortality (%) (Plutella xylostella [3]; application rate 12.5 ppm): 100% | Plutella xylostella larval average mortality (%) (Plutella xylostella [3]; application rate 50 ppm): 100% | Plutella xylostella larval average mortality (%) (Plutella xylostella [3]; application rate 200 ppm): 100% | Tetranychus urticae mixed population average mortality (%) (Tetranychus urticae [4]; application rate 0.195 ppm): 0% | Tetranychus urticae mixed population average mortality (%) (Tetranychus urticae [4]; application rate 0.781 ppm): 100% | Tetranychus urticae mixed population average mortality (%) (Tetranychus urticae [4]; application rate 3.12 ppm): 100% | Tetranychus urticae mixed population average mortality (%) (Tetranychus urticae [4]; application rate 12.5 ppm): 100% | Tetranychus urticae mixed population average mortality (%) (Tetranychus urticae [4]; application rate 50 ppm): 100% | Tetranychus urticae mixed population average mortality (%) (Tetranychus urticae [4]; application rate 200 ppm): 100%

Cc1cc(C2=NO[C@@](c3cc(Cl)c(F)c(Cl)c3)(C(F)(F)F)C2)ccc1C(=O)NC1CN(S(=O)(=O)N(CC(F)(F)F)CC(F)(F)F)C1 [Compound A13, N-[1-[bis(2,2,2-trifluoroethyl)sulfamoyl]azetidin-3-yl]-4-[(5S)-5-(3,5-dichloro-4-fluoro-phenyl)-5-(trifluoromethyl)-4H-isoxazol-3-yl]-2-methyl-benzamide]
percent effect (mortality or growth inhibition) at 200 ppm (Plutella xylostella [5]): ≥ 80% | mortality at 200 ppm (Myzus persicae; [9]): ≥ 80% | mortality at 200 ppm (Tetranychus urticae [6]; [10]): ≥ 80% | percent control (mortality, anti-feedant effect or growth inhibition) at 200 ppm (Spodoptera littoralis [7]): ≥ 80% | percent effect (mortality or growth inhibition) at 200 ppm (Diabrotica balteata): ≥ 80% | mortality at 200 ppm (Thrips tabaci [8]; [9]): ≥ 80%

Cc1cc(C2=NO[C@@](c3cc(Cl)c(F)c(Cl)c3)(C(F)(F)F)C2)ccc1C(=O)NC1CN(S(=O)(=O)NCC(F)(F)F)C1 [Compound A14, 4-[(5S)-5-(3,5-dichloro-4-fluoro-phenyl)-5-(trifluoromethyl)-4H-isoxazol-3-yl]-2-methyl-N-[1-(2,2,2-trifluoroethylsulfamoyl)azetidin-3-yl]benzamide]
percent effect (mortality or growth inhibition) at 200 ppm (Plutella xylostella [5]): ≥ 80% | mortality at 200 ppm (Myzus persicae; [9]): ≥ 80% | mortality at 200 ppm (Tetranychus urticae [6]; [10]): ≥ 80% | percent control (mortality, anti-feedant effect or growth inhibition) at 200 ppm (Spodoptera littoralis [7]): ≥ 80% | percent effect (mortality or growth inhibition) at 200 ppm (Diabrotica balteata): ≥ 80% | mortality at 200 ppm (Thrips tabaci [8]; [9]): ≥ 80% | percent effect (mortality or growth inhibition) at 200 ppm (Euschistus heros): ≥ 80%

Cc1cc(C2=NO[C@@](c3cc(Cl)cc(C(F)(F)F)c3)(C(F)(F)F)C2)ccc1C(=O)NC1CN(S(=O)(=O)F)C1 [Compound A10, 3-[[4-[(5S)-5-[3-chloro-5-(trifluoromethyl)phenyl]-5-(trifluoromethyl)-4H-isoxazol-3-yl]-2-methyl-benzoyl]amino]azetidine-1-sulfonyl fluoride]
percent control (mortality or growth inhibition) at 200 ppm (Plutella xylostella [5]): ≥ 80% | mortality at 200 ppm (Myzus persicae): ≥ 80% | mortality at 200 ppm (Tetranychus urticae [6]): ≥ 80% | mortality at 200 ppm (Spodoptera littoralis [7]; read-out: control (mortality, anti-feedant effect, growth inhibition)): ≥ 80% | percent control (mortality or growth inhibition) at 200 ppm (Diabrotica balteata): ≥ 80% | mortality at 200 ppm (Thrips tabaci [8]): ≥ 80% | percent control (mortality or growth inhibition) at 200 ppm (Euschistus heros): ≥ 80%

Cc1cc(C2=NO[C@@](c3cc(Cl)cc(C(F)(F)F)c3)(C(F)(F)F)C2)ccc1C(=O)NC1CN(S(=O)(=O)OCC(F)(F)F)C1 [Compound A18, 2,2,2-trifluoroethyl 3-[[4-[(5S)-5-[3-chloro-5-(trifluoromethyl)phenyl]-5-(trifluoromethyl)-4H-isoxazol-3-yl]-2-methyl-benzoyl]amino]azetidine-1-sulfonate]
percent effect (mortality or growth inhibition) at 200 ppm (Plutella xylostella [5]): ≥ 80% | mortality at 200 ppm (Tetranychus urticae [6]; [10]): ≥ 80% | percent control (mortality, anti-feedant effect or growth inhibition) at 200 ppm (Spodoptera littoralis [7]): ≥ 80% | percent effect (mortality or growth inhibition) at 200 ppm (Diabrotica balteata): ≥ 80% | mortality at 200 ppm (Thrips tabaci [8]; [9]): ≥ 80% | percent effect (mortality or growth inhibition) at 200 ppm (Euschistus heros): ≥ 80%

Cc1cc(C2=NO[C@@](c3cc(Cl)cc(Cl)c3)(C(F)(F)F)C2)ccc1C(=O)NC1CN(S(=O)(=O)C2CC2)C1 [Compound A04, N-(1-cyclopropylsulfonylazetidin-3-yl)-4-[(5S)-5-(3,5-dichlorophenyl)-5-(trifluoromethyl)-4H-isoxazol-3-yl]-2-methyl-benzamide]
percent effect (mortality or growth inhibition) at 200 ppm (Plutella xylostella [5]): ≥ 80% | mortality at 200 ppm (Tetranychus urticae [6]; [10]): ≥ 80% | percent control (mortality, anti-feedant effect or growth inhibition) at 200 ppm (Spodoptera littoralis [7]): ≥ 80% | percent effect (mortality or growth inhibition) at 200 ppm (Diabrotica balteata): ≥ 80% | percent effect (mortality or growth inhibition) at 200 ppm (Euschistus heros): ≥ 80%

Cc1cc(C2=NO[C@@](c3cc(Cl)c(F)c(Cl)c3)(C(F)(F)F)C2)ccc1C(=O)NC1CN(S(N)(=O)=O)C1 [Compound A12, 4-[(5S)-5-(3,5-dichloro-4-fluoro-phenyl)-5-(trifluoromethyl)-4H-isoxazol-3-yl]-2-methyl-N-(1-sulfamoylazetidin-3-yl)benzamide]
percent effect (mortality or growth inhibition) at 200 ppm (Plutella xylostella [5]): ≥ 80% | mortality at 200 ppm (Myzus persicae; [9]): ≥ 80% | mortality at 200 ppm (Tetranychus urticae [6]; [10]): ≥ 80% | percent control (mortality, anti-feedant effect or growth inhibition) at 200 ppm (Spodoptera littoralis [7]): ≥ 80% | percent effect (mortality or growth inhibition) at 200 ppm (Diabrotica balteata): ≥ 80% | mortality at 200 ppm (Thrips tabaci [8]; [9]): ≥ 80% | percent effect (mortality or growth inhibition) at 200 ppm (Euschistus heros): ≥ 80%

Cc1cc(C2=NO[C@@](c3cc(Cl)cc(Cl)c3)(C(F)(F)F)C2)ccc1C(=O)NC1CN(S(=O)(=O)N(C)C)C1 [Compound A03, 4-[(5S)-5-(3,5-dichlorophenyl)-5-(trifluoromethyl)-4H-isoxazol-3-yl]-N-[1-(dimethylsulfamoyl)azetidin-3-yl]-2-methyl-benzamide]
percent effect (mortality or growth inhibition) at 200 ppm (Plutella xylostella [5]): ≥ 80% | mortality at 200 ppm (Myzus persicae; [9]): ≥ 80% | mortality at 200 ppm (Tetranychus urticae [6]; [10]): ≥ 80% | percent control (mortality, anti-feedant effect or growth inhibition) at 200 ppm (Spodoptera littoralis [7]): ≥ 80% | percent effect (mortality or growth inhibition) at 200 ppm (Diabrotica balteata): ≥ 80% | mortality at 200 ppm (Thrips tabaci [8]; [9]): ≥ 80% | percent effect (mortality or growth inhibition) at 200 ppm (Euschistus heros): ≥ 80%
